Holding throughout (type): biochemical
One test has as its target T1, aggrecanase-1 (Homo sapiens, UniProt O75173).
T1 sequence (O75173 213-837): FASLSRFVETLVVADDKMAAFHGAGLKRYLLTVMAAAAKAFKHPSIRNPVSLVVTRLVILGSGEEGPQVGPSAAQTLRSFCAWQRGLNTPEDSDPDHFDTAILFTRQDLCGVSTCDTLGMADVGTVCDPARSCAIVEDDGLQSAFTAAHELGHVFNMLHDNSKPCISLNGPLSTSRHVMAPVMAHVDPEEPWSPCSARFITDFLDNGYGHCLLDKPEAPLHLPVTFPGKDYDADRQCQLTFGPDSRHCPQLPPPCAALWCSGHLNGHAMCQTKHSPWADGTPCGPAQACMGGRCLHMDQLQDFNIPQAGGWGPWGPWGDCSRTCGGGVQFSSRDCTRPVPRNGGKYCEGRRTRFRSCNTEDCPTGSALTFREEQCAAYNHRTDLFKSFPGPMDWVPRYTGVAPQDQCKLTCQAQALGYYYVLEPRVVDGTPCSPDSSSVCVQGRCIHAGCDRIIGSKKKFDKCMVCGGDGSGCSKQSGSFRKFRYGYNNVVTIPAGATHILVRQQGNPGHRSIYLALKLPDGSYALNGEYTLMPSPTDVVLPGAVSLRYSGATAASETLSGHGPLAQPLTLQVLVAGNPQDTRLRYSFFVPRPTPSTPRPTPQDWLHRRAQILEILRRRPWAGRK
Description: Aggrecanase-1 inhibitory action (Particle Assay, GAG release from aggrecan-containing polyacrylamide particles). Put shortly: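 Enzyme and compound incubated with aggrecan-containing polyacrylamide particles in Tris-HCl buffer at 37° C for 15 h. Released GAG in supernatant measured with 1,9-dimethylmethylene blue at 595 nm against chondroitin sulfate standard; % inhibition from enzyme-free and inhibitor-free wells, reported as TC50 (μM).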

A further test has as its target T2, MMP-1 (Homo sapiens, UniProt P03956).
T2 sequence (P03956 100-469): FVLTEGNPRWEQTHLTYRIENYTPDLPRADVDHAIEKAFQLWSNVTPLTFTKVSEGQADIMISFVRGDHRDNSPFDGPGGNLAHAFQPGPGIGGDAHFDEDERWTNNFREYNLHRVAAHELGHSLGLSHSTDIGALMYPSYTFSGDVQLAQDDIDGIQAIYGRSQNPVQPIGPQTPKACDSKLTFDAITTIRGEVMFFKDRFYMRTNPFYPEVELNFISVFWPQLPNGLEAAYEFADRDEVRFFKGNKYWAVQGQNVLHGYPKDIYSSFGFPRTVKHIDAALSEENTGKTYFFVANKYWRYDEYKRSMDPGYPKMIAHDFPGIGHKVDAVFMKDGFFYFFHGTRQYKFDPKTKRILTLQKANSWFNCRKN
Description: MMP-1 inhibitory action (Type I collagen Activity Measurement kit, FITC-labeled collagen type I).

The target in another test is T3, Recombinant Human MMP-13 (Homo sapiens, UniProt P45452).
T3 construct: purchased R&D systems 511-MM
Description: MMP-13 inhibitory activity (MMP-13 specific fluorescent substrate with quencher). Put shortly: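 Recombinant human MMP-13 with test compound, reaction started with quenched fluorogenic peptide 7-MCA-Pro-CHA-Gly-NVal-His-Ala-DPA in Tris-HCl buffer, 1 h at 25 °C, stopped with acetic acid. Fluorescence at Ex 325/Em 405 nm; % inhibition versus enzyme-free and inhibitor-free wells, reported as IC50 (μM).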

[1] abbreviates: Experimental Example 1, read-out: IC50 AG1.
The mark [2] stands for this setting: Experimental Example 2, read-out: IC50 MMP1.
Where [3] appears, read: Experimental Example 3, read-out: IC50 MMP13.
Where [4] appears, read: aggrecanase-1 inhibitory action, read-out: IC50 AG1 (Experimental Example 1).
Where [5] appears, read: MMP-1 inhibitory action, FITC-labeled collagen type I, 37° C. for 3 hr, read-out: IC50 MMP1 (Experimental Example 2).
The mark [6] stands for this setting: Recombinant Human MMP-13, fluorescent substrate, 25° C. for 1 h, read-out: IC50 MMP13 (Experimental Example 3).

For orientation: IC50 means the concentration at which inhibition is half-maximal.

Read-outs that look alike come from different tables or passages of the source. Some results are limits rather than exact numbers.

Turning to `O=C(O)C1(NS(=O)(=O)c2ccc(-c3cc(C(F)(F)F)on3)s2)CC1c1cc(CCO)on1` (stereo not drawn) [Example 2-316], the half-inhibitory concentration (IC50) at aggrecanase-1 (setting [1]) is not below 1 µM; on MMP-1 (setting [2]), not below 10 µM; on Recombinant Human MMP-13 (setting [3]) it was not below 10 µM.

With `O=C(O)C1(NS(=O)(=O)c2ccc(-c3ccc(Cl)cc3)s2)C2CCNc3ccccc3C21` (stereo not drawn) [Example 2-389], the IC50 is less than 0.1 µM at aggrecanase-1 (setting [1]), not below 1 µM at MMP-1 (setting [2]) and less than 0.1 µM on Recombinant Human MMP-13 (setting [3]).

Turning to `COCc1cc(-c2ccc(S(=O)(=O)N[C@@]3(C(=O)O)C[C@]3(C)c3ccccc3)s2)no1` [Example 2-403], the IC50 was less than 1 µM at aggrecanase-1 (setting [1]), less than 1 µM at MMP-1 (setting [2]) and less than 0.1 µM on Recombinant Human MMP-13 (setting [3]).

For `CC1(c2ccccc2F)CC1(NS(=O)(=O)c1ccc(-c2cc(C(F)(F)F)on2)s1)C(=O)O` (stereo not drawn) [Example 2-615], the concentration for half-maximal inhibition (IC50) at aggrecanase-1 (setting [1]), at MMP-1 (setting [2]) and at Recombinant Human MMP-13 (setting [3]) was less than 0.1 µM throughout.

As for `CCC1C(c2ccccc2)C1(NS(=O)(=O)c1ccc(-c2cc(C(F)(F)F)on2)s1)C(=O)O` (stereo not drawn) [Example 2-299], the IC50 on aggrecanase-1 (setting [1]), at MMP-1 (setting [2]) and at Recombinant Human MMP-13 (setting [3]) was less than 0.1 µM throughout.

Consider `O=C(OCCCc1ccccc1C1CC1(NS(=O)(=O)c1ccc(-c2cc(C(F)(F)F)on2)s1)C(=O)O)N1CCOCC1` (stereo not drawn) [Example 2-253], for which the values for the IC50 on aggrecanase-1 (setting [4]), at MMP-1 (setting [5]) and on Recombinant Human MMP-13 (setting [6]) were less than 0.1 µM, not below 1 µM and less than 0.1 µM, respectively.

Regarding `CC1[C@H](c2ccccc2)[C@]1(NS(=O)(=O)N1CCN(CCc2ccccc2)CC1)C(=O)O` (stereo partly drawn) [Example 2-531], the IC50 on aggrecanase-1 (setting [1]), on MMP-1 (setting [2]) and at Recombinant Human MMP-13 (setting [3]) was not below 1 µM throughout.

With `O=C(NO)C1(NS(=O)(=O)c2ccc(-c3cc(C(F)(F)F)on3)s2)C2Cc3ccccc3C21` (stereo not drawn) [Example 2-495], the IC50 on aggrecanase-1 (setting [1]), at MMP-1 (setting [2]) and on Recombinant Human MMP-13 (setting [3]) was less than 0.1 µM each time.

Take `O=C(O)C1(NS(=O)(=O)c2ccc(-c3ccc(Cl)cc3)s2)CC1(CCCO)c1ccccc1` (stereo not drawn) [Example 2-227]: the results for the IC50 on aggrecanase-1 (setting [4]), on MMP-1 (setting [5]) and at Recombinant Human MMP-13 (setting [6]) were less than 0.1 µM, not below 1 µM and less than 1 µM, respectively.

Consider `CC(C)CCN1CCN(S(=O)(=O)N[C@@]2(C(=O)O)C[C@@H]2c2ccccc2)CC1` [Example 2-511], for which the IC50 on aggrecanase-1 (setting [1]), on MMP-1 (setting [2]) and on Recombinant Human MMP-13 (setting [3]) was not below 1 µM in each case.

Turning to `CC1[C@H](c2ccccc2)[C@]1(NS(=O)(=O)N1CC=C(c2ccc(Cl)cc2)CC1)C(=O)O` (stereo partly drawn) [Example 2-441], the IC50 at aggrecanase-1 (setting [1]) is less than 0.1 µM; at MMP-1 (setting [2]), not below 1 µM; at Recombinant Human MMP-13 (setting [3]) it was less than 0.1 µM.

In the case of `Cc1nnc(N2CCN(S(=O)(=O)N[C@@]3(C(=O)O)C(C)[C@@H]3c3ccccc3)CC2)s1` (stereo partly drawn) [Example 2-465], the results for the 50% inhibitory concentration (IC50) on aggrecanase-1 (setting [1]), at MMP-1 (setting [2]) and on Recombinant Human MMP-13 (setting [3]) were not below 1 µM, not below 10 µM and not below 10 µM, respectively.

For the molecule `C[C@]1(c2ccccc2)C[C@@]1(NS(=O)(=O)c1ccc(-c2ccc(Cl)c(CO)c2)s1)C(=O)O` [Example 2-564], the IC50 on aggrecanase-1 (setting [1]) was less than 0.1 µM; at MMP-1 (setting [2]) it was not below 1 µM; at Recombinant Human MMP-13 (setting [3]) it was less than 0.1 µM.

`C[C@]1(c2ccccc2)C[C@@]1(NS(=O)(=O)c1ccc(-n2cc(C(F)(F)F)cn2)s1)C(=O)O` [Example 2-599]: the 50% inhibitory concentration (IC50) on aggrecanase-1 (setting [1]) is less than 0.1 µM; at MMP-1 (setting [2]), not below 1 µM; on Recombinant Human MMP-13 (setting [3]), less than 1 µM.

`CC1[C@H](c2ccccc2)[C@]1(NS(=O)(=O)c1ccc2c(c1)Cc1cc(Br)ccc1-2)C(=O)O` (stereo partly drawn) [Example 2-286]: the concentration for half-maximal inhibition (IC50) on aggrecanase-1 (setting [1]) is less than 0.1 µM; at MMP-1 (setting [2]), not below 1 µM; on Recombinant Human MMP-13 (setting [3]), less than 0.1 µM.

As for `O=C(O)[C@]1(NS(=O)(=O)c2ccc(-c3cc(C(F)(F)F)on3)o2)C[C@@H]1c1ccccc1` [Example 2-371], the values for the half-maximal inhibitory concentration (IC50) on aggrecanase-1 (setting [1]), on MMP-1 (setting [2]) and at Recombinant Human MMP-13 (setting [3]) were not below 1 µM, not below 10 µM and not below 1 µM, respectively.

Source of the values: patent US20080261994A1, “CYCLOPROPANE COMPOUNDS AND PHARMACEUTICAL USE THEREOF” (Japan Tobacco Inc., priority 2003, published 2008).
